The assay has as its system opuAA-treA reporter activity. Kind of assay: opuAA-treA reporter fusion TreA enzyme activity assay. It is filed as cell-based, Bacillus subtilis. Particulars: strain STHB10 (OpuAR+), SMM with 1.2 M NaCl, 1 mM compatible solute. An excerpt: opuAAB.infantis′-treA reporter gene fusions were constructed using primers opuAR treA Frag1/2 rev and either opuAR treA Frag1/4 for (Supplementary Table S2) to amplify a 1940-bp DNA fragment from chromosomal DNA of B. infantis NRRL B-14911, including the predicted opuA promoter region and the coding region of opuAR, or primer opuAR treA Frag2 for, to generate a fragment lacking the opuAR gene. PCR products, which had been cut with BamHI and SmaI, were cloned into the vector pJMB1 ([Hoffmann et al., 2013]). This vector carries a promoterless treA gene, whose gene product [phospho-α-(1,1)-glucosidase] can be assayed and photometrically quantitated with the chromogenic substrate α-PNPG ([Gotsche and Dahl, 1995]). The plasmids resulting for the construction of the treA transcriptional reporter gene fusions were named pSTH33 (opuAR^+/opuAAB.i-treA) and pSTH34 (opuAR^-/opuAAB.i-treA) (Supplementary Table S3). All treA reporter gene fusions were stably integrated as a single copy into the chromosome of various B. subtilis strains at the amyE gene; all of these strains carry a gene disruption mutation of the native chromosomal treA gene of B. subtilis to allow the assignment of the measured TreA enzyme activity to the reporter gene constructs (Supplementary Table S1).
Aliquots (1.5 ml) from cultures of B. subtilis strains carrying chromosomal opuAAB.i′-treA reporter operon gene fusions (Supplementary Table S1) were used to monitor the expression levels by assaying the TreA reporter enzyme activity as described previously using the chromogenic substrate α-PNPG ([Gotsche and Dahl, 1995]). The TreA-specific activity is expressed in units per milligram of protein. Protein concentrations were estimated from the optical density of the cell culture harboring the treA reporter operon gene fusion ([Miller, 1972]).
FIGURE 6 Influence of the B. subtilis GbsR-like regulators on the expression of opuA from B. infantis and its transcriptional response to the presence of compatible solutes. (A) Genetic structure of the opuAA-treA transcriptional reporter fusions. (B) The opuAA-treA reporter gene fusions, either including or lacking the B. infantis opuAR gene, were integrated into the chromosome of the B. subtilis strain STHB05; it carries gene disruption mutations of all three GbsR-like regulators, resulting in strains STHB10 (OpuAR^+) and STHB11 (OpuAR^-). […] The opuAA-treA reporter strains were grown in SMM to early exponential growth phase (OD578 1–1.5) and then assayed for TreA reporter enzyme activity. The shown data represent four independent biological replicates and each culture was assayed twice. (C) Strain STHB10 (opuAR^+/opuAA-treA) was grown in SMM with increasing NaCl concentrations until each of these cultures reached mid-exponential growth phase (OD578 of about 1.5) and were then harvested for TreA reporter enzyme activity assays. The given data are the means and standard deviations of four independent biological replicates and each culture was assayed twice. (D) Expression of the opuAA-treA reporter gene construct in response to extracellular provided compatible solutes. The opuAA-treA reporter fusion strains STHB10 (OpuAR^+) and STHB11 (OpuAR^-) were cultivated in SMM containing 1.2 M NaCl either in the absence or presence of 1 mM of the indicated compatible solutes. The opuAA-treA reporter fusion strains were grown to early exponential growth phase (OD578 1–1.5) and then assayed for TreA reporter enzyme activity. The given data are the means and standard deviations of four independent biological replicates and each culture was assayed twice.
To identify possible effector molecules for the B. infantis OpuAR protein, we conducted a series of in vivo experiments in which we assessed any possible inducing effects of compatible solutes on opuAA-treA transcriptional activity in an OpuAR-dependent fashion (Figure 6D).

The structures appear in SMILES notation. Entries after “also recorded” stand apart in the source; their conditions may differ.

On to `CN(C)CC(=O)O` [DMG, dimethlyglycine], for which the “Induction of opuAA-treA reporter activity (OpuAR-dependent)” value is recorded as “did not serve as inducers”.

As to `C[S+](C)CCC(=O)[O-]` [DMSP, dimethylsulfoniopropionate], the “Induction of opuAA-treA reporter activity (OpuAR-dependent)” value is listed as “did not serve as inducers”. Under `C[N+](C)(C)CCO` [choline] stands “served as inducers; also recorded: induced”; under `C[N+](C)(C)CC(=O)[O-]` [glycine betaine], “served as inducers; also recorded: induced”. Under `C[N+](C)(C)CCC(=O)[O-]` [homobetaine] stands “did not serve as inducers”; under `C[N+]1(C)CCC[C@H]1C(=O)[O-]` [proline betaine], “served as inducers; also recorded: induced”.

The record behind these values is publication PMC6207618, “The GbsR Family of Transcriptional Regulators: Functional Characterization of the OpuAR Repressor” (Frontiers in Microbiology, 2018).
